Experimental data: patent EP0405436B1, “Dihetero nitrogen-containing cycloheteroethanoanthracene derivatives as antipsychotic agents” (G.D. Searle & Co., priority 1989, dated 1991)
Read-outs that look alike come from different tables or passages of the source.

Columns and labels:
sigma receptor = sigma receptor (Rattus norvegicus, UniProt Q9R0C9); format: binding, male Sprague-Dawley rats
Procedure: To determine the effects of the compounds in a sigma receptor assay, crude membrane preparations were prepared as follows. Brains from male Sprague-Dawley rats were homogenized in 10 volumes (wt/vol) of 0.32 M sucrose, using a Polytron grinder. The homogenate was centrifuged at 900 X G for 10 minutes at 4°C. The supernatant was collected and centrifuged at 22,000 X g for 20 minutes at 4°C. The pellet was resuspended in 10 volumes of 50 mM Tris/HCl buffer (pH 7.4) and centrifuged at 22,000 X g for 20 minutes at 4°C. The pellet was resuspended in 5 mM Tris/HCl buffer (pH 7.4) to give a final concentration of 250 mg/ml of the crude material. Incubation tubes were prepared in triplicate and contained 0.1 ml of tissue suspension, 2 nM of [³H]-(+)-1-propyl-3-(3-hydroxyphenyl)piperidine {[³H]-3-(+)-PPP}, and varying concentrations of the displacing ligand (0.1-1000 nM) in a final volume of 0.5 ml. After a 1 hr incubation at room temperature, the contents of the test tubes were filtered through GS filter paper which had been presoaked for at least 2 hours in 0.05% polyethyleneimine. The test tubes were rinsed three times with Tris/HCl buffer. Radioactivity on the filters was determined using […] [Biochem. Pharmacol., 22, 3099-3108, 1973].

[1] = tested on: apomorphine-induced climbing; assay: Blockade of apomorphine-induced climbing; format: in vivo, Swiss-Webster mice; conditions: Mus musculus; mice, i.p. or s.c. pretreatment; 2 mg/kg apomorphine s.c.; rated at 10 and 20 minutes; read-out: Blockade of Apomorphine-induced Climbing ED₅₀
Procedure: Compounds of the invention were evaluated for their ability to block apomorphine-induced climbing. The evaluation of the compounds followed the method outlined by Protais [Psychopharmacol., 50, 1-6, 1976]. Swiss-Webster mice, weighing 20-25 g, are pretreated with the compounds of the invention by i.p. or s.c. administration at various times before 2 mg/kg apomorphine is administered s.c in a volume of 1 ml/kg. All test compounds are administered in a volume of 10 ml/kg. Mice are rated at 10 and 20 minutes after apomorphine administration using the following rating scale: (0) forepaws on the floor, (1) forefeet holding the bars, and (2) four paws holding bars. Dose-response curves are analyzed by a computerized Finney assay [Statistical Methods in Biological Assays, 2nd Edn., Hatner Pub. Co., New York (1964)].

[2] = read-out: Ki apparent (nM) (units ± SEM); rat brain membranes, 2 nM [³H]-3-(+)-PPP, 1 hr at room temperature, displacing ligand 0.1-1000 nM

Sequence of sigma receptor (Q9R0C9 whole entry): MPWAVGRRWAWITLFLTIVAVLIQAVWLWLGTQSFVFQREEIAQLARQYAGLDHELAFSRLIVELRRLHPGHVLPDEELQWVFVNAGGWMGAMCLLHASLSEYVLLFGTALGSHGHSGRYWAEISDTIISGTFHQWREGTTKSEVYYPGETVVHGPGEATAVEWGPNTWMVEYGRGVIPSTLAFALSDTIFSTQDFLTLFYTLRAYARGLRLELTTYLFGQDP

Row | Structure (SMILES) | Ki (sigma receptor; [2]) [nM] | ED50 [1] [mg/kg] | Ki (sigma receptor; rat brain membranes, 2 nM [³H]-3-(+)-PPP, 1 hr at room temperature, displacing ligand 0.1-1000 nM; read-out: Ki apparent (nM) (units ± SEM))
1 | c1ccc(CN2CCN(CC3CC4c5ccccc5C3c3ccccc34)CC2)cc1 (stereo not drawn) [Compound No. 6, 4-[(9,10-Dihydro-9,10-ethanoanthracenyl)methyl]-1-benzylpiperazine] | 98 ± 18 | 10 | 
2 | CN1CCN(C(=O)C2CC3c4ccccc4C2c2ccccc23)CC1 (stereo not drawn) [Compound No. 5, reference compound] |  |  | > 1000
3 | CN1CCN(CC2CC3c4ccccc4C2c2ccccc23)CC1 (stereo not drawn) [Compound No. 1, 4-[(9,10-Dihydro-9,10-ethanoanthracenyl)methyl]-1-methylpiperazine] | 120 ± 20 | 1 | 
4 | c1cnc(N2CCN(CC3CC4c5ccccc5C3c3ccccc34)CC2)nc1 (stereo not drawn) [Compound No. 3, 4-[(9,10-Dihydro-9,10-ethanoanthracenyl)methyl]-1-(2-pyrimidyl)piperazine] | > 1000 |  | 
5 | OCCN1CCN(CC2CC3c4ccccc4C2c2ccccc23)CC1 (stereo not drawn) [Compound No. 2, 4-[(9,10-dihydro-9,10-ethanoanthracenyl)methyl]-1-(2-hydroxyethyl)-piperazine] | 21 ± 6 | 1 | 
6 | c1ccc2c(c1)C1CC(CN3CCN4CCCC4C3)C2c2ccccc21 (stereo not drawn) [Compound No. 4, 4-[(9,10-dihydro-9,10-ethanoanthracenyl)methyl]-1,4-diazabicyclo[4.3.0]nonane] | 20 ± 3 |  | 
